Data as given in patent publication US4659859A, “2-alkoxy-1-alkoxy phosphoryl dichlorides” (priority 1986, dated 1987).
“And” between values parts separate entries of the source, which are not always exact repeats. Equal entries are not always repeated. Structures can show the parent of a compound that is named as a salt.

Tests used:
C-6 colon carcinoma = test: Antitumor activity vs C-6 colon carcinoma in mice; type: in vivo; conditions: daily for 10 days, 5 day delay
Source text: (§1) Compounds according to formula II above are also active against transplanted tumors in mice. Table II which follows gives the results of testing (d,1)-2-ethoxy-1-[(2-trimethylaminoethoxy)phosphinyloxy]-eicosane,hydroxy inner salt, (A), against several such tumors. In the table, column 1 gives the name of the tumor, column 2 the dosage levels, column 3 toxic deaths, column 4, the percent tumor growth inhibition and column 5, the dosage schedule or regimen. Ten mice were given each dosage I.P. and a group of 20 mice used as controls.

6C3 HED lymphosarcoma = test: Antitumor activity vs 6C3 HED lymphosarcoma in mice; type: in vivo; conditions: daily for 8 days after inoculation
Source text: as §1

[1] = tested on: X-5563 plasma cell myeloma; test: Antitumor activity vs X-5563 plasma cell myeloma in mice; type: in vivo; conditions: daily for 10 days with 3 day delay
Source text: as §1
Table III gives the results obtained by comparing the activity of the racemate (d,1)-2-ethoxy-1-[(2-trimethylaminoethoxy)phosphinyloxy]eicosane,hydroxy inner salt (A), the L-(-)enantiomer (B) and the D-(+)enantiomer (C) versus X-5563, a plasma cell myeloma.

[2] = tested on: X-5563 plasma cell myeloma; test: Oral dosing vs X-5563 plasma cell myeloma; type: in vivo, mice
P388 leukemia = test: Antitumor activity vs P388 leukemia; parameters: species or system mice; conditions: mouse, in vivo
Source text: as §1

M-5 ovarian carcinoma = test: Antitumor activity vs M-5 ovarian carcinoma; parameters: species or system mice; conditions: mouse, in vivo
Source text: as §1

C3 H mammary carcinoma = test: Antitumor activity vs C3 H mammary carcinoma; parameters: species or system mice; conditions: mouse, in vivo
Source text: as §1

CA755 mammary carcinoma = test: Antitumor activity vs CA755 mammary carcinoma; parameters: species or system mice; conditions: mouse, in vivo
Source text: as §1

[3] = tested on: release of arachidonic acid from membrane phospholipids (rabbit neutrophils); test: Inhibition of release of arachidonic acid from membrane phospholipids in glycogen-elicited rabbit neutrophils; type: cell-based; conditions: A-23187 0.5 mcg/ml activation, 5 minutes pretreatment at 37° C.
Protocol: In this procedure, glycogen-elicited rabbit neutrophils are labelled with ^14 C-arachidonic acid by incubation for one hour at 37° C. and followed by treatment with the compound under test at 37° C. for 5 minutes. The cells were then activated by addition of 0.5 mcg/ml of A-23187 (an ionophore) for 5 minutes. Cellular metabolism was stopped; the membrane lipids extracted; and the extracted lipids chromatographed on TLC plates. Assays were conducted for free ^14 C-arachidonic acid and hydroxy^14 C-eicosatetraenoic acid (HETES) using a radiochromatogram scanner.

[4] = tested on: spontaneously hypertensive rats (SHR); test: Blood pressure and heart rate in spontaneously hypertensive rats, tail cuff method; type: in vivo, rat; conditions: for Blood pressure: tail cuff
Source text: (§2) The above compounds are also active in lowering the blood pressure of spontaneously hypertensive rats (SHR). […] In the table, column 1 gives the compound used, column 2 the dose level, column 3, the route of administration, column 4, number of rats, column 5, the time of blood pressure measurement, column 6, blood pressure in mm (Hg), and column 7, heart rate.
*B.P. measured by tail cuff method.

[5] = tested on: spontaneously hypertensive rats (SHR); test: Blood pressure and heart rate in spontaneously hypertensive rats, femoral artery cannula; type: in vivo, rat; conditions: for Blood pressure: femoral artery cannula
Source text: as §2
**B.P. measured by femoral artery cannula.

[6] = 30 mg/kg S.C., 0 hours (baseline), 8 rats
[7] = 50 mg/kg S.C., 0 hours (baseline), 8 rats
[8] = 3 mg/kg I.V., 0 hours (baseline)
[9] = 10 mg/kg I.V., 0 hours (baseline)

CCCCCCCCCCCCCCCCCCC(COP(=O)([O-])OCC[N+](C)(C)C)OCC (racemic) [Compound 3, (d,l)-2-Ethoxy-1-[(2-trimethylaminoethoxy)phosphinyloxy]eicosane, hydroxy inner salt]
Percent inhibition of Tumor growth (C-6 colon carcinoma; 12 mg/kg I.P.): 23% | Toxic deaths (C-6 colon carcinoma; 12 mg/kg I.P.): 0/10 | Percent inhibition of Tumor growth (C-6 colon carcinoma; 17 mg/kg I.P.): 56% | Toxic deaths (C-6 colon carcinoma; 17 mg/kg I.P.): 1/10 | Percent inhibition of Tumor growth (C-6 colon carcinoma; 25 mg/kg I.P.): 24% | Toxic deaths (C-6 colon carcinoma; 25 mg/kg I.P.): 0/10 | Percent inhibition of Tumor growth (C-6 colon carcinoma; 35 mg/kg I.P.): Toxic | Toxic deaths (C-6 colon carcinoma; 35 mg/kg I.P.): 5/10 | Percent inhibition of Tumor growth (6C3 HED lymphosarcoma; 12 mg/kg I.P.): 10% | Toxic deaths (6C3 HED lymphosarcoma; 12 mg/kg I.P.): 0/10 | Percent inhibition of Tumor growth (6C3 HED lymphosarcoma; 17 mg/kg I.P.): 15% | Toxic deaths (6C3 HED lymphosarcoma; 17 mg/kg I.P.): 0/10 | Percent inhibition of Tumor growth (6C3 HED lymphosarcoma; 25 mg/kg I.P.): 48% | Toxic deaths (6C3 HED lymphosarcoma; 25 mg/kg I.P.): 0/10 | Percent inhibition of Tumor growth (6C3 HED lymphosarcoma; 35 mg/kg I.P.): 85% | Toxic deaths (6C3 HED lymphosarcoma; 35 mg/kg I.P.): 0/10 | Percent inhibition of Tumor growth ([1]; 12 mg/kg): 37% | Toxic deaths ([1]; 12 mg/kg): 0/10 | Toxic deaths ([1]; 17 mg/kg): 0/10 | Percent inhibition of Tumor growth ([1]; 17 mg/kg, listed as (d,1)-A): 65% | Percent inhibition of Tumor growth ([1]; 17 mg/kg, listed as A): 65% and 70% | Percent inhibition of Tumor growth ([1]; 25 mg/kg, listed as (d,1)-A): 77% | Toxic deaths ([1]; 25 mg/kg, listed as (d,1)-A): 0/10 | Percent inhibition of Tumor growth ([1]; 25 mg/kg, listed as A): 77% and 86% | Toxic deaths ([1]; 25 mg/kg, listed as A): 0/10 and 2/10 | Percent inhibition of Tumor growth ([1]; 35 mg/kg, listed as (d,1)-A): Toxic | Toxic deaths ([1]; 35 mg/kg, listed as (d,1)-A): 4/10 | Percent inhibition of Tumor growth ([1]; 35 mg/kg, listed as A): toxic | Toxic deaths ([1]; 35 mg/kg, listed as A): 4/10 and 5/10 | Toxic deaths ([1]; 50 mg/kg): 10/10 | Percent inhibition of Tumor growth ([1]; 50 mg/kg, listed as (d,1)-A): Toxic | Percent inhibition of Tumor growth ([1]; 50 mg/kg, listed as A): toxic | Percent inhibition of Tumor growth ([1]; 70 mg/kg): toxic | Toxic deaths ([1]; 70 mg/kg): 10/10 | inhibition of tumor growth ([2]; 25 mg/kg orally daily for 10 days after inoculation): 10% | inhibition of tumor growth ([2]; 35 mg/kg orally daily for 10 days after inoculation): 47% | inhibition of tumor growth ([2]; 50 mg/kg orally daily for 10 days after inoculation): 56% | toxicity ([2]; 50, 35 and 25 mg/kg orally daily for 10 days): minimal toxicity | toxicity ([2]; 50 and 70 mg/kg dose levels orally): toxic | activity against P388 leukemia (P388 leukemia): no activity | activity against M-5 ovarian carcinoma (M-5 ovarian carcinoma): no activity | activity against C3 H mammary carcinoma (C3 H mammary carcinoma): no activity | activity against CA755 mammary carcinoma (CA755 mammary carcinoma): no activity | inhibition of the release of arachidonic acid (AA) from phospholipids [3]: 69% | inhibition of the total production of free AA and HETES [3]: 97% | Blood pressure ([4]; 5 mg/kg S.C., 0 hours (baseline), 5 rats): 188 mm Hg | Blood pressure ([4]; 5 mg/kg S.C., 1 hour, 5 rats): 177 mm Hg | Blood pressure ([4]; 5 mg/kg S.C., 2 hours, 5 rats): 159 mm Hg | Blood pressure ([4]; 5 mg/kg S.C., 3 hours, 5 rats): 155 mm Hg | Blood pressure ([4]; 5 mg/kg S.C., 4 hours, 5 rats): 154 mm Hg | Blood pressure ([4]; 5 mg/kg S.C., 5 hours, 5 rats): 156 mm Hg | Heart Rate [4, 6]: 335 beats/min | Blood pressure [4, 6]: 188 mm Hg | Heart Rate ([4]; 30 mg/kg S.C., 1 hour, 8 rats): 328 beats/min | Blood pressure ([4]; 30 mg/kg S.C., 1 hour, 8 rats): 177 mm Hg | Heart Rate ([4]; 30 mg/kg S.C., 2 hours, 8 rats): 349 beats/min | Blood pressure ([4]; 30 mg/kg S.C., 2 hours, 8 rats): 151 mm Hg | Heart Rate ([4]; 30 mg/kg S.C., 3 hours, 8 rats): 346 beats/min | Blood pressure ([4]; 30 mg/kg S.C., 3 hours, 8 rats): 147 mm Hg | Heart Rate ([4]; 30 mg/kg S.C., 4 hours, 8 rats): 347 beats/min | Blood pressure ([4]; 30 mg/kg S.C., 4 hours, 8 rats): 156 mm Hg | Heart Rate ([4]; 30 mg/kg S.C., 5 hours, 8 rats): 341 beats/min | Blood pressure ([4]; 30 mg/kg S.C., 5 hours, 8 rats): 151 mm Hg | Heart Rate [4, 7]: 345 beats/min | Blood pressure [4, 7]: 190 mm Hg | Heart Rate ([4]; 50 mg/kg S.C., 1 hour, 8 rats): 352 beats/min | Blood pressure ([4]; 50 mg/kg S.C., 1 hour, 8 rats): 177 mm Hg | Heart Rate ([4]; 50 mg/kg S.C., 2 hours, 8 rats): 355 beats/min | Blood pressure ([4]; 50 mg/kg S.C., 2 hours, 8 rats): 149 mm Hg | Heart Rate ([4]; 50 mg/kg S.C., 3 hours, 8 rats): 367 beats/min | Blood pressure ([4]; 50 mg/kg S.C., 3 hours, 8 rats): 143 mm Hg | Heart Rate ([4]; 50 mg/kg S.C., 4 hours, 8 rats): 357 beats/min | Blood pressure ([4]; 50 mg/kg S.C., 4 hours, 8 rats): 139 mm Hg | Heart Rate ([4]; 50 mg/kg S.C., 5 hours, 8 rats): 359 beats/min | Blood pressure ([4]; 50 mg/kg S.C., 5 hours, 8 rats): 129 mm Hg | hypotensive effects in SHR (in words) ([4]; administered subcutaneously, various dose levels): hypotensive effects | Heart Rate [5, 8]: 335 beats/min | Blood pressure [5, 8]: 195 mm Hg | Heart Rate ([5]; 3 mg/kg I.V., 1.0 hours): 395 beats/min | Blood pressure ([5]; 3 mg/kg I.V., 1.0 hours): 173 mm Hg | Heart Rate ([5]; 3 mg/kg I.V., .08 hours): 280 beats/min | Blood pressure ([5]; 3 mg/kg I.V., .08 hours): 105 mm Hg | Heart Rate ([5]; 3 mg/kg I.V., .25 hours): 337 beats/min | Blood pressure ([5]; 3 mg/kg I.V., .25 hours): 140 mm Hg | Heart Rate ([5]; 3 mg/kg I.V., .5 hours): 370 beats/min | Blood pressure ([5]; 3 mg/kg I.V., .5 hours): 153 mm Hg | Heart Rate [5, 9]: 345 beats/min | Blood pressure [5, 9]: 198 mm Hg | Heart Rate ([5]; 10 mg/kg I.V., 1.0 hours): 365 beats/min | Blood pressure ([5]; 10 mg/kg I.V., 1.0 hours): 154 mm Hg | Heart Rate ([5]; 10 mg/kg I.V., .08 hours): 442 beats/min | Blood pressure ([5]; 10 mg/kg I.V., .08 hours): 78 mm Hg | Heart Rate ([5]; 10 mg/kg I.V., .25 hours): 420 beats/min | Blood pressure ([5]; 10 mg/kg I.V., .25 hours): 140 mm Hg | Heart Rate ([5]; 10 mg/kg I.V., .5 hours): 395 beats/min | Blood pressure ([5]; 10 mg/kg I.V., .5 hours): 153 mm Hg
